# Counter-ions that a name gives are not always drawn.
# What was measured:
# [1] = molecular target: EGFR(D770_N771insSVD) expressing Ba/F3 stable cell line (Homo sapiens, UniProt P00533, DUP768-770, cells depend on it); test: Cellular proliferation (Alamar Blue) assay, EGFR D770_N771insSVD Ba/F3; type: cell-based; settings: EGFR D770_N771insSVD Ba/F3, 72 hr, read-out: D770 IC50
# Protocol: (§1) Example 3: Cellular Proliferation (Alamar Blue) Assays
# (§2) • 1. EGFR(D770_N771insSVD) expressing Ba/F3 stable cell line • 2. EGFR (A767_dupASV) expressing Ba/F3 stable cell line • 3. A431 cells • 4. BTER2 (A775_G776insYVMA) expressing Ba/F3 stable cell line • 5. BTER2 (WT) expressing Ba/F3 stable cell line • 6. BT-474 cells
# (§3) • 1. Seed cells at 5000 for A431 and 15,000 cells for Ba/F3 in 100 μL/well in complete media (for A431: DMEM with 10% FBS and for Ba/F3 cells: RPMI with 10% FBS) in 96-well tissue culture plate. Leave outer wells without cells for background measurements. Incubate at 37 degree Celsius in 5% CO2 humidified incubator for 16-18 hours. • 2. Add 0.025 ml of 5× concentration compound dilution or DMSO control. Final compound concentration range is 10-0.0005 μM prepared in 3-fold serial dilutions. Incubate for 72 hr at 37 degree Celsius in […] humidified incubator. • 3. Add 0.0125 mL Alamar Blue™ reagent to each well with multi-channel pipette and tap gently on each side of the plate to mix. Incubate for 3 hours at 37 degree Celsius in […] humidified incubator. • 4. Read plates on fluorescence reader (Tecan Spark Control, Device: Spark, Serial #: 1801006040) at 540 nm excitation, 590 nm emission wavelength. • 5. Data analysis was performed using XLfit 5.5.0.5.
# [2] = molecular target: HER2 (A775_G776insYVMA) expressing Ba/F3 stable cell line (Homo sapiens, UniProt P04626, DUP772-775, cells depend on it); test: Cellular proliferation (Alamar Blue) assay, HER2 YVMA Ba/F3; type: cell-based; settings: HER2 A775_G776insYVMA Ba/F3, 72 hr, read-out: YVMA IC50
# Protocol: as §1, §2, §3
# A431 cells = test: Cellular proliferation (Alamar Blue) assay, A431; type: cell-based; settings: Homo sapiens, A-431; A431 cells, 72 hr, Alamar Blue; read-out: A431 IC50
# Protocol: as §1, §2, §3
# [3] = molecular target: EGFR (A767_dupASV) expressing Ba/F3 stable cell line (Homo sapiens, UniProt P00533, DUP767-769, cells depend on it); test: Cellular proliferation (Alamar Blue) assay, EGFR A767_dupASV Ba/F3; type: cell-based; settings: EGFR A767_dupASV Ba/F3, 72 hr, read-out: A767 IC50
# Protocol: as §1, §2, §3
# EGFR (T790M/L858R) = molecular target: T1, EGFR (T790M/L858R) (Homo sapiens, UniProt P00533, L858R/T790M); test: EGFR L858R/T790M enzyme inhibition assay (HTRF); type: biochemical; settings: 5 μM ATP, 60 min, read-out: EGFR_L858R T790M_IC50_nM
# T1 construct: GST; purchased Proqinase
# Protocol: Example 2: EGFR L858R & Del19/T790M Assay Protocol (to Find the IC50 for the Compounds Using HTRF Method)
# Reagents for Enzyme Assay:
# • 1. Enzyme Assay Buffer: 60 mM HEPES (pH 7.4), 50 mM NaCl, 20 mM MgCl2, 5 mM MnCl2, filtered using 0.2 μm pore size, stored at 4° C. • Supplements (added fresh to the enzyme buffer): 1M DTT stock was made, 5% BSA stock and 0.1M Na3OV4 stored at 4° C. Enzyme assay buffer 50 mL, 1 M DTT 100 μL, 5% BSA 500 μL, 0.1 M Na3OV4 50 μL. • 2. GST-hEGFR (L858R), active: EGFR (T790M/L858R), active (Proqinase), 3.6 μM stock; 2.5 nM in final assay. • 3. Gastrin Precusor-Biotinylated: Gastrin precursor (Tyr87) biotinylated peptide, EEAY*GWM, Cell Signaling Tech 1310, Lot-7, Want final 0.5 μM in assay. • 4. ATP: 10 mM stock in 100 μL Enzyme assay buffer pH 7.4 prepared freshly, want 5 μM in final assay. • 5. Test compounds: Powders were dissolved in 100% DMSO and made up to a final stock concentration of 10 mM (volume in μL to add for 10 mM=mg powder X 10^5/MW). Final compound concentration in the assay plate started at 10 μM.
# • 1. HTRF buffer: 50 mM Tris —HCl, pH-7.5, 100 mM NaCl, 0.1% BSA, 0.05% Tween20, 0.5 mM EDTA, filtered using 0.2 μm pore size, stored at 4° C. • Phycolink® Streptavidin-Allophycocyanin (SA-APC) Prozyme, Cat. #PJ25S, Lot #896 085, 2.06 mg/mL, APC concentration is 11.6 μM, streptavidin concentration is 15.5 μM. Want 12 nM final in assay (based on streptavidin concentration). • 2. (Europium) Eu-W1024 Anti-phosphotyrosine (PT-66) Antibody: Perkin Elmer (Product Number: AD0068), monoclonal IgG1 that recognizes phosphotyrosine peptide 100 μg/ml stock. Want 0.1 nM final in assay.
# • 1. The compound dilution was made by TECAN as per the above scheme. • 2. 16 μL of diluted compound was added to the assay plate by using TECAN. • 3. 10 μL of enzyme mix was added to each well except mins. • 4. 20 μL of substrate and ATP mix were added into each well of the assay plate, manually. • 5. The plate was incubated on a laboratory shaker at room temperature for 60 min. • 6. Meanwhile, the HTRF mix was prepared and 75 μL was added to the HTRF plate. • 7. When the incubation was over, 10 μL of the reaction mixture was transferred to the HTRF assay plate and incubated on a laboratory shaker for 30 min at room temperature. • 8. The reading was taken in Pherastar (ext 337 nm, Em 665 & 620 nm). • 9. The results were analyzed using Graphpad prism after calculation of the z factor, signal window and % inhibition to get the IC50.
# Chain of EGFR (A767_dupASV) expressing Ba/F3 stable cell line (P00533 with tags, fused parts or gaps DUP767-769): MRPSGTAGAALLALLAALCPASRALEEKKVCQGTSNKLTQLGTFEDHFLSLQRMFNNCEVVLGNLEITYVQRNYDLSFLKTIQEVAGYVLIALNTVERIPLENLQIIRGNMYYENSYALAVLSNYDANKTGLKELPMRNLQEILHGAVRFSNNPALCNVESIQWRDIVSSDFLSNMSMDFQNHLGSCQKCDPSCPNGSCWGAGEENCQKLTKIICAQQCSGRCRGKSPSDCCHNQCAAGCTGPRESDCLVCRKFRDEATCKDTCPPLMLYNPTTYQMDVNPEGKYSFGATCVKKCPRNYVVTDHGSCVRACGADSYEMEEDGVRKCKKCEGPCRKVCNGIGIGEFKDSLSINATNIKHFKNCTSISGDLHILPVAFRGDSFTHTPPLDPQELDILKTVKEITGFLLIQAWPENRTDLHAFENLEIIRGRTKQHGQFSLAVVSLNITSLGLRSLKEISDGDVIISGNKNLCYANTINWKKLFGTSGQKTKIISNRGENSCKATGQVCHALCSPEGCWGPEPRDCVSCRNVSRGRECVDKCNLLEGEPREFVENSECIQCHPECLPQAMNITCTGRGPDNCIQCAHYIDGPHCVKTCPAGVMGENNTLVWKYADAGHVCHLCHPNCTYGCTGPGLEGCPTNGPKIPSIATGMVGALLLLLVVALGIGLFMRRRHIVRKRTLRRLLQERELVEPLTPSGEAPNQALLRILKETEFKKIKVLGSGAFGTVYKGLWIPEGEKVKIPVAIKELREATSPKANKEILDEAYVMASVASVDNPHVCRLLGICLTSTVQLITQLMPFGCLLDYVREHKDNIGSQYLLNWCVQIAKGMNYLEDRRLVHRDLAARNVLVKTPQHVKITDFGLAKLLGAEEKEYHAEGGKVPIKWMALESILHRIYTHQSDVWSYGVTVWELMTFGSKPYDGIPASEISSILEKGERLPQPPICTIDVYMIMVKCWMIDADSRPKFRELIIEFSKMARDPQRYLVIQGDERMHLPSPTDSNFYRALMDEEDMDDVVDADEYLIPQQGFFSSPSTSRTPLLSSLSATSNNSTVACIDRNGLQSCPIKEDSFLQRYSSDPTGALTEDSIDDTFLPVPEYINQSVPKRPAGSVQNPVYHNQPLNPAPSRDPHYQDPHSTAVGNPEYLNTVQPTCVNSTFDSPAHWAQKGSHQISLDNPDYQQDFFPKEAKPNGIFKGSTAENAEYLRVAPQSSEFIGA
# Chain of EGFR(D770_N771insSVD) expressing Ba/F3 stable cell line (P00533 with tags, fused parts or gaps DUP768-770): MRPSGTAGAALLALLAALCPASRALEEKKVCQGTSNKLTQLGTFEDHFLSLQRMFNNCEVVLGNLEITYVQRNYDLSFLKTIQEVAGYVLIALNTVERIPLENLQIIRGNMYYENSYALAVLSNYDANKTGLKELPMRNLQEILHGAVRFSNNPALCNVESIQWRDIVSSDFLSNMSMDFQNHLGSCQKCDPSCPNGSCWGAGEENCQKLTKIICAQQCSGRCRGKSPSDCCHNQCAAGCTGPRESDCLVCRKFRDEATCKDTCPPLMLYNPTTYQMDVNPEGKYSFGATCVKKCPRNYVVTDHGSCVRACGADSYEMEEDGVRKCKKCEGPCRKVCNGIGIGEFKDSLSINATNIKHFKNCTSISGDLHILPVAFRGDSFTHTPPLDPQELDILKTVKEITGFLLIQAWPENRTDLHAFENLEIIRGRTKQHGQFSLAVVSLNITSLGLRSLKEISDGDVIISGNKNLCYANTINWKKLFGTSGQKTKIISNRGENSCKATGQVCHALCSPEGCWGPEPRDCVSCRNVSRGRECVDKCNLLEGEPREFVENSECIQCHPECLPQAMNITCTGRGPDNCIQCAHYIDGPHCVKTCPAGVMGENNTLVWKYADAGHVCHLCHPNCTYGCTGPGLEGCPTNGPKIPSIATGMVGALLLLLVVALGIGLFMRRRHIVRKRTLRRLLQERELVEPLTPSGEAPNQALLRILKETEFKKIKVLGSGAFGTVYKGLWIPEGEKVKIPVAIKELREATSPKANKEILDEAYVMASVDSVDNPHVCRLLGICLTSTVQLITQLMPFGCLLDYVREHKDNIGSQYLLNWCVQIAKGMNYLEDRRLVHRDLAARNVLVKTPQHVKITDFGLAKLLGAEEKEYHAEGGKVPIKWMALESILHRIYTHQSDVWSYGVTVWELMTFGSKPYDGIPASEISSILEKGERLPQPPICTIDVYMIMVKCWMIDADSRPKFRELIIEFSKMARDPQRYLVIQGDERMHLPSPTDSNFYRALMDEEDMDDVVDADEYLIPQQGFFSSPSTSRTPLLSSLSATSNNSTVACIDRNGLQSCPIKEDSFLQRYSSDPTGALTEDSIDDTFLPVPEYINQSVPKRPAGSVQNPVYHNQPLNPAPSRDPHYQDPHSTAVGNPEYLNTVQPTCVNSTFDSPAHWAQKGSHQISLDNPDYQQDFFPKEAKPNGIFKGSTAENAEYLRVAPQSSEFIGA
# Chain of HER2 (A775_G776insYVMA) expressing Ba/F3 stable cell line (P04626 with tags, fused parts or gaps DUP772-775): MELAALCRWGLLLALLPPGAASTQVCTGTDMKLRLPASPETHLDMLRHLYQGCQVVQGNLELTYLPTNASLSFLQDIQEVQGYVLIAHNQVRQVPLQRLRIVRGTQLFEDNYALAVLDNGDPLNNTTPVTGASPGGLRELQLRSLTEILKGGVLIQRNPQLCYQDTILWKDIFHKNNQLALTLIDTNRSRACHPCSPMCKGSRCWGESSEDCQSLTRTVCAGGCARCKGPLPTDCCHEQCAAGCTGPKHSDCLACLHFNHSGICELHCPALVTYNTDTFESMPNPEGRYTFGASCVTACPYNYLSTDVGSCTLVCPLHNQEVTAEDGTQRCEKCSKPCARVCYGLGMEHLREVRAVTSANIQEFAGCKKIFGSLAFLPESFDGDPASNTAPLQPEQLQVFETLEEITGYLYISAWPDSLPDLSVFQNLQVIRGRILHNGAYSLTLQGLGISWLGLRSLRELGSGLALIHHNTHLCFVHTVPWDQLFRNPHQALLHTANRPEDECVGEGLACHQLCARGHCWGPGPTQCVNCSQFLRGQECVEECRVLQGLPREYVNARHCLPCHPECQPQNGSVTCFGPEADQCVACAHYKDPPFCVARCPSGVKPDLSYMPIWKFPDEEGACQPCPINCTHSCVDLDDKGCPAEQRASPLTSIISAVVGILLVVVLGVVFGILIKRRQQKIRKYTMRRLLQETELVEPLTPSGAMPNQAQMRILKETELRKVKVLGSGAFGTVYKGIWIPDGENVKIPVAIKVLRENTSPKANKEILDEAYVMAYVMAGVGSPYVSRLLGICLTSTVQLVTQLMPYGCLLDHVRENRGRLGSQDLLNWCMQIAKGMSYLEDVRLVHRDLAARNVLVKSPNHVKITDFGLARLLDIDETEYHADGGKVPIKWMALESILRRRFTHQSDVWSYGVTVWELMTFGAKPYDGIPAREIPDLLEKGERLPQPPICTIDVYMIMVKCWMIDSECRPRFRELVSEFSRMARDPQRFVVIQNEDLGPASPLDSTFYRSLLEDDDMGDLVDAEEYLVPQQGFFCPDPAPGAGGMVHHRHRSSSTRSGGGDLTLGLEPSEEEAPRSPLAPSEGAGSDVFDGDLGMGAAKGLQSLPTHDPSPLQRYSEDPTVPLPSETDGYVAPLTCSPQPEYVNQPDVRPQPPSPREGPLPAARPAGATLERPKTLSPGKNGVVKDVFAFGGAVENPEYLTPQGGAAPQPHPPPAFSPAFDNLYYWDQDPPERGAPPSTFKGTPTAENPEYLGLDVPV
# T1 sequence (P00533 25-1210 T790M/L858R): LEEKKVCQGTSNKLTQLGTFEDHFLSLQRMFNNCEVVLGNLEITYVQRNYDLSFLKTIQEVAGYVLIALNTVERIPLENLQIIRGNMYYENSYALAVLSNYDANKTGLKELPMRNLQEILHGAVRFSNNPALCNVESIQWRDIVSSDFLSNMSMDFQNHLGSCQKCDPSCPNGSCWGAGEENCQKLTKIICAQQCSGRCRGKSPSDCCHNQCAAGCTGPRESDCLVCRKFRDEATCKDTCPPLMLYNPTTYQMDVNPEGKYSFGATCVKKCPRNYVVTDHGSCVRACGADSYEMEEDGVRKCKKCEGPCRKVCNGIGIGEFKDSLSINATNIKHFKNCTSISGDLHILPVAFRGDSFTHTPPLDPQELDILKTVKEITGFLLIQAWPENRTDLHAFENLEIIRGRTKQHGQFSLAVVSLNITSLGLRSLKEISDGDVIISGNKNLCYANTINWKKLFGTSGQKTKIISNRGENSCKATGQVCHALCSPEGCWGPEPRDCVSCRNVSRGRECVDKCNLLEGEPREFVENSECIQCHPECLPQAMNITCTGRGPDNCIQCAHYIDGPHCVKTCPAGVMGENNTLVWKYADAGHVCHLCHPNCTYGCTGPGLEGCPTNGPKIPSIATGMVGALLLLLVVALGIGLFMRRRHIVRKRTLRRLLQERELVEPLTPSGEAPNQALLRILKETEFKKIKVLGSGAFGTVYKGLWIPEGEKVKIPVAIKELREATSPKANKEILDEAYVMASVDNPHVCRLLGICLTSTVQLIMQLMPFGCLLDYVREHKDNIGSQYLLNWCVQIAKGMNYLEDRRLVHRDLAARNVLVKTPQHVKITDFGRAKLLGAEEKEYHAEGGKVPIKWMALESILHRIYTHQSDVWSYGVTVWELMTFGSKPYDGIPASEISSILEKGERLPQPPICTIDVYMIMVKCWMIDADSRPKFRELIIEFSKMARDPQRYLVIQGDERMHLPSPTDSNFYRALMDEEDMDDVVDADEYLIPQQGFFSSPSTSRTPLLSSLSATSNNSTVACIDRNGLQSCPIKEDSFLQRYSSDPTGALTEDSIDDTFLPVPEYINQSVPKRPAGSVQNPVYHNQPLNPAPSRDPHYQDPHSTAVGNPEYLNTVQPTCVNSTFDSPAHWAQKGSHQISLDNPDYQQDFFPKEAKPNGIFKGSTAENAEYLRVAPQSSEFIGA
Compound,GI50 [1] [µM],GI50 [2] [µM],IC50 (A431 cells) [µM],GI50 [3] [µM],IC50 (EGFR (T790M/L858R)) [µM]
"C=CC(=O)Nc1cccc(N2C(=O)N(c3ccccc3)Cc3cnc(Nc4cn(C(C)(C)C#N)nc4Cl)nc32)c1 [Compound 123, N-(3-(7-((3-chloro-1-(2-cyanopropan-2-yl)-1H-pyrazol-4-yl)amino)-2-oxo-3-phenyl-3,4-dihydropyrimido[4,5-d]pyrimidin-1(2H)-yl)phenyl)acrylamide trifluoroacetate salt]",0.3,0.319,≥ 10,0.176,–
"C=CC(=O)Nc1cccc(N2C(=O)N(c3ccccc3)Cc3cnc(Nc4cnn(C5CCC(O)CC5)c4)nc32)c1 (centres unmarked) [Compound 108, N-(3-(7-((1-(4-hydroxycyclohexyl)-1H-pyrazol-4-yl)amino)-2-oxo-3-phenyl-3,4-dihydropyrimido[4,5-d]pyrimidin-1(2H)-yl)phenyl)acrylamide]",0.634,2.02,≥ 10,0.912,–
"C=CC(=O)Nc1cccc(N2C(=O)N(Cc3ccccc3)Cc3cnc(Nc4ccc(N5CCC(N(C)C)CC5)nc4)nc32)c1 [Compound 72, N-(3-(3-benzyl-7-((6-(4-(dimethylamino)piperidin-1-yl)pyridin-3-yl)amino)-2-oxo-3,4-dihydropyrimido[4,5-d]pyrimidin-1(2H)-yl)phenyl)acrylamide]",0.296,0.575,≥ 10,0.1,–
"C=CC(=O)Nc1cccc(N2C(=O)N(Cc3ccc(C)cc3C)Cc3cnc(Nc4cn(C)nc4Cl)nc32)c1 [Compound 69, N-(3-(7-((3-chloro-1-methyl-1H-pyrazol-4-yl)amino)-3-(2,4-dimethylbenzyl)-2-oxo-3,4-dihydropyrimido[4,5-d]pyrimidin-1(2H)-yl)phenyl)acrylamide]",0.349,0.682,≥ 10,0.333,–
"C=CC(=O)Nc1cccc(N2C(=O)N(c3ccccc3)Cc3cnc(Nc4ccc(N5CCC(N(C)C)CC5)nc4)nc32)c1 [Compound 112, N-(3-(7-((6-(4-(dimethylamino)piperidin-1-yl)pyridin-3-yl)amino)-2-oxo-3-phenyl-3,4-dihydropyrimido[4,5-d]pyrimidin-1(2H)-yl)phenyl)acrylamide]",0.295,0.354,≥ 10,0.229,–
"CN(C)C/C=C/C(=O)Nc1cccc(N2C(=O)N(Cc3ccccc3)Cc3cnc(Nc4cccc5c4CCN5C)nc32)c1 [Compound 80, (E)-N-(3-(3-benzyl-7-((1-methylindolin-4-yl)amino)-2-oxo-3,4-dihydropyrimido[4,5-d]pyrimidin-1(2H)-yl)phenyl)-4-(dimethylamino)but-2-enamide]",0.806,0.296,≥ 10,0.343,–

# The remaining lines, values ahead:
GI50 [1] [µM],GI50 [2] [µM],IC50 (A431 cells) [µM],GI50 [3] [µM],IC50 (EGFR (T790M/L858R)) [µM],Compound
0.017,0.068,≥ 10,0.004,–,"C=CC(=O)Nc1cccc(N2C(=O)N(c3ccccc3)Cc3cnc(Nc4cn(C)nc4F)nc32)c1 [Compound 113, N-(3-(7-((3-fluoro-1-methyl-1H-pyrazol-4-yl)amino)-2-oxo-3-phenyl-3,4-dihydropyrimido[4,5-d]pyrimidin-1(2H)-yl)phenyl)acrylamide]"
0.029,0.063,> 10,0.015,–,"C=CC(=O)Nc1cccc(N2C(=O)N(c3ccccc3)Cc3cnc(Nc4cn(C5COC5)nc4Cl)nc32)c1 [Compound 136, N-(3-(7-((3-chloro-1-(oxetan-3-yl)-1H-pyrazol-4-yl)amino)-2-oxo-3-phenyl-3,4-dihydropyrimido[4,5-d]pyrimidin-1(2H)-yl)phenyl)acrylamide]"
–,–,–,–,6.57,"CN(C)C/C=C/C(=O)N1CCC(N2C(=O)N(Cc3ccccc3)Cc3cnc(Nc4cn(C)nc4Cl)nc32)C1 (centres unmarked) [Compound 34, (E)-3-benzyl-7-((3-chloro-1-methyl-1H-pyrazol-4-yl)amino)-1-(1-(4-(dimethylamino)but-2-enoyl)pyrrolidin-3-yl)-3,4-dihydropyrimido[4,5-d]pyrimidin-2(1H)-one]"
≥ 10,–,≥ 10,3.92,0.00297,"C=CC(=O)NC1CCCC(N2C(=O)N(c3ccc(F)cc3)Cc3cnc(Nc4cn(C)nc4Cl)nc32)C1 (centres unmarked) [Compound 36, N-(3-(7-((3-chloro-1-methyl-1H-pyrazol-4-yl)amino)-3-(4-fluorophenyl)-2-oxo-3,4-dihydropyrimido[4,5-d]pyrimidin-1(2H)-yl)cyclohexyl)acrylamide]"
≥ 10,–,≥ 10,≥ 10,≥ 10,"CN(C)C/C=C/C(=O)N1CC[C@H](N2C(=O)N(c3ccccc3)Cc3cnc(Nc4cn(C)nc4Cl)nc32)C1 [Compound 42, (S,E)-7-((3-chloro-1-methyl-1H-pyrazol-4-yl)amino)-1-(1-(4-(dimethylamino)but-2-enoyl)pyrrolidin-3-yl)-3-phenyl-3,4-dihydropyrimido[4,5-d]pyrimidin-2(1H)-one]"
0.759,–,≥ 10,0.504,0.58,"C=CC(=O)N1CC[C@H](N2C(=O)N(c3ccccc3)Cc3cnc(Nc4cn(C)nc4Cl)nc32)C1 [Compound 41, (S)-1-(1-acryloylpyrrolidin-3-yl)-7-((3-chloro-1-methyl-1H-pyrazol-4-yl)amino)-3-phenyl-3,4-dihydropyrimido[4,5-d]pyrimidin-2(1H)-one]"
3.88,–,≥ 10,4.08,0.869,"CN(C)C/C=C/C(=O)NC1CCCC(N2C(=O)N(Cc3ccccc3)Cc3cnc(Nc4cn(C)nc4Cl)nc32)C1 (centres unmarked) [Compound 33, (E)-N-(3-(3-benzyl-7-((3-chloro-1-methyl-1H-pyrazol-4-yl)amino)-2-oxo-3,4-dihydropyrimido[4,5-d]pyrimidin-1(2H)-yl)cyclohexyl)-4-(dimethylamino)but-2-enamide]"
≥ 10,–,7.49,≥ 10,0.446,"C=CC(=O)N1CC[C@@H](N2C(=O)N(Cc3ccccc3)Cc3cnc(Nc4cn(C)nc4Cl)nc32)C1 (single isomer, unassigned) [Compound 38]"
